Laboratory results from patent US20020197233A1, “Methods of treating central nervous system ischemic or hemorrhagic injury using anti alpha4 integrin antagonists” (priority 1999, published 2002).

Columns and labels:
[1] = test system: spontaneously hypertensive rats (SHRs); assay: Reversible middle cerebral artery occlusion (MCAO), infarct volume, spontaneously hypertensive rats; format: in vivo, rat; details: 300 ng/kg/min continuous subcutaneous infusion, vs vehicle treated controls, 24 h after induction of cerebral ischemia (1 h MCAO)
Protocol: (§1) Male Sprague Dawley (SD) or spontaneously hypertensive rats (SHRS) were anesthetized using isoflurane and the right middle cerebral artery (MCAO) occluded by insertion of a 4-0 nylon monofilament up the internal carotid artery to the origin of the middle cerebral artery (MCA) (Zea Longa et al, 1989 Stroke 20:84). After 1 h the filament was retracted, the ischemic territory reperfused and the animal allowed to recover. After 24 h the rats were sacrificed, at which time brains were removed and analyzed histologically to quantify infarct volume.
(§2) Groups of animals were treated with either vehicle (PBS) or the bradykinin B2 receptor antagonist Hoe 140 (Hoechst) by continuous subcutaneous infusion via osmotic mini-pumps. Primed mini osmotic pumps (Alza Corp.,) were implanted into the subcutaneous space at the scruff of the neck immediately prior to induction of cerebral ischemia. The pumps were loaded to release 300 ng/kg/min Hoe 140 and delivered compound or vehicle at a rate of 8 μl/h.
(§3) In a separate experiment groups of animals were treated with either vehicle (sterile isotonic saline), TA2 (mouse anti rat VLA4: Seikagaku America Inc.) or an isotype control antibody (mouse anti-human LFA3: obtained from Biogen, Inc.). All treatments were administered 24 h before surgery intravenously (2.5 mg/kg or appropriate volume of vehicle)
(§4) Vehicle treated control rats that underwent MCAO sustained extensive lesions throughout cortical and subcortical regions of the brain. The ischemic hemisphere was markedly swollen and significant behavioral deficits were observed (eg. hemiparesis resulting in rotation and limb weakness). Spontaneously hypertensive rats sustained more extensive and reproducible brain infarcts than Sprague Dawley rats subjected to the same surgical procedure. Infarct volumes are expressed as mean values+/−s.e.m. Statistical analysis was performed using an unpaired Students' t-test (* denotes p<0.05, ** denotes p<0.01).

Sprague Dawley (SD) rats = assay: Reversible middle cerebral artery occlusion (MCAO), infarct volume, Sprague Dawley rats; format: in vivo, rat; details: 300 ng/kg/min continuous subcutaneous infusion, vs vehicle treated controls, 24 h after induction of cerebral ischemia (1 h MCAO)
Protocol: as §1, §2, §3, §4

Substance: Hoe 140
- reduction of cortical infarct volume [1]: 43%
- reduction of subcortical infarct volume [1]: 17%
- reduction of total infarct volume [1]: 37%
- reduction of cortical infarct volume (Sprague Dawley (SD) rats): 93%
- reduction of subcortical infarct volume (Sprague Dawley (SD) rats): 24%
- reduction of total infarct volume (Sprague Dawley (SD) rats): 57%
